This note sets out measurements from patent publication US20260347387A1, “Lipid-Gold Salt Molecules and Formulation in Lipid Nanoparticle Delivery Systems” (NORTHWESTERN UNIVERSITY, priority 2023, published 2026).

This assay has as its system TOV-21G ovarian cancer cells. As to the kind of experiment: Cell viability assay, TOV-21G clear cell ovarian cancer cells. In kind it is cell-based. The conditions noted are these: Table C, FIGS. 24, 25. How it is done: In vitro cellular viability assay. ES-2 (2,500 cells/well), 786-0 ccRCCa (400 cells/well), Ramos (16,000 cells/well), SUDHL4 (16,000 cells/well), Jurkat (16,000 cells/well), CWR-R1 (1,000 cells/well), LNCaP (2,000 cells/well), and 22rv1 (2,000 cells/well) were plated into 96 well plates. Adherent ES-2, CWR-R1, LNCaP, 22rv1, and 786-0 cells were incubated for 24 h. Media in the wells was then replaced with pre-prepared media containing the appropriate drug formulations at the appropriate drug concentration. Ramos, SUDHL4, and Jurkat cells are suspension cell lines and were plated and treated on the same day. After 72 h, cell viability was measured via an MTS cell-proliferation assay (CellTiter 96 Aqueous One, Promega; Madison, WI) and the relative cell-survival percentages compared to the vehicle control were plotted against the concentration of either the AuNP or the oc-HDL NPs in logarithmic scale. The data reported represent an average of three measurements.
Addition of gold salts to HDL-NPs disclosed herein decreased cell viability more than the addition of gold salts to oc-HDL NPs disclosed herein in a clear cell ovarian cancer model (TOV-21Gcell line). Cells were treated with gold-bearing HDL-NPs or gold salts as disclosed herein in an assay described in the Materials and protocols for in vitro studies section above.

Regarding `CCP(CC)CC.[Au+].[Cl-]` [Et3PAuCl, Chloro(triethylphosphine)gold(I)], the half-maximal inhibitory concentration (IC50) (as a rule, the midpoint of a concentration-inhibition curve) is 9.74 nM.
